Measured values from patent EP0312157A2, “Tetrapeptide renin inhibitors having a novel c-terminal amino acid” (Merck & Co., Inc., priority 1987, dated 1989).
Structures can show the parent of a compound that is named as a salt.

Biological target: T1, renin (Homo sapiens, UniProt P00797)
T1 sequence (P00797 67-406): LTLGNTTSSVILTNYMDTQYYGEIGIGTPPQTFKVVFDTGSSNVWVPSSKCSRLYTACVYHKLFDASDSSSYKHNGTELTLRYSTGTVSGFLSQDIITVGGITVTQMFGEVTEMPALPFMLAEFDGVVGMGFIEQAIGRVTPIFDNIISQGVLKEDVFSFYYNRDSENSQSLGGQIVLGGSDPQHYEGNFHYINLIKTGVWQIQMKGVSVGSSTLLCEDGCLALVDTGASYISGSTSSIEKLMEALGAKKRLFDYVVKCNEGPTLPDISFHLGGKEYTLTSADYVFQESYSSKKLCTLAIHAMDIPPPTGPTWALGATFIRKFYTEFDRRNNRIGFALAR
Assay: renin inhibition, IC50 (method not described)
Type: biochemical

Row | Compound | IC50
1 | CC(C)(C)OC(=O)N[C@@H](Cc1ccccc1)C(=O)N[C@@H](Cc1c[nH]cn1)C(=O)N[C@@H](CC1CCCCC1)[C@@H](O)CC(=O)N[C@@H](CN)C(=O)NCc1ccncc1 [Example 10, N^α-t-butoxycarbonyl-L-phenylalanyl-L-histidyl-(3S,4S)-4-amino-5-cyclohexyl-3-hydroxypentanoyl-L-2,4-diaminopropionyl-4-(aminomethyl)pyridine amide hydrochloride] | 37 nM
2 | NCCCC[C@H](NC(=O)C[C@H](O)[C@H](CC1CCCCC1)NC(=O)[C@H](Cc1c[nH]cn1)NC(=O)[C@H](Cc1ccccc1)NC(=O)N1CCOCC1)C(=O)NCc1ccncc1 [Example 23, N-[(Morpholin-4-yl)carbonyl]Phe-His-ACHPA-Lys-NHCH2(pyridin-4-y1)] | 12 nM
3 | CC(C)(C)OC(=O)N[C@@H](Cc1ccccc1)C(=O)N[C@@H](Cc1c[nH]cn1)C(=O)N[C@@H](CC1CCCCC1)[C@@H](O)CC(=O)N[C@@H](CCCCN)C(=O)NCC1CCNCC1 [Example 2, N^α-t-butoxycarbonyl-L-phenylalanyl-L-histidyl-{3S,4S)-4-amino-5-cyclohexyl-3-hydroxy-pentanoyl-L-lysyl-4-(aminomethyl)-piperidinamide dihydrochloride] | 338 nM
4 | CC(C)(C)OC(=O)N[C@@H](Cc1ccccc1)C(=O)N[C@@H](Cc1c[nH]cn1)C(=O)N[C@@H](CC1CCCCC1)[C@@H](O)CC(=O)N[C@@H](CCCCN)C(=O)NCc1ccncc1 [Example 1, N^α-t-butoxycarbonyl-L-Phenylalanyl-L-histidyl-(3S,4S)-4-amino-5-cyclohexyl-3-hydroxypentanoyl-L-lysyl-4-(aminomethyl)pyridine amide hydrochloride] | 38 nM
5 | CN(CCc1ccccn1)C(=O)[C@H](CCCCN)NC(=O)C[C@H](O)[C@H](CC1CCCCC1)NC(=O)[C@H](Cc1c[nH]cn1)NC(=O)[C@H](Cc1ccccc1)NC(=O)OC(C)(C)C [Example 5, N^α-t-butoxycarbonyl-L-phenylalanyl-L-histidyl-(3S,4S)-4-amino-5-cyclohexyl-3-hydroxypentanoyl-L-lysyl-2-(2-methylaminoethyl)-pyridinamide acetate] | 225 nM
6 | CC(C)(C)OC(=O)NCCOC(=O)N[C@@H](Cc1ccccc1)C(=O)N[C@@H](Cc1c[nH]cn1)C(=O)N[C@@H](CC1CCCCC1)[C@@H](O)CC(=O)N[C@@H](CCCCN)C(=O)NCC1CCNCC1 [Example 26, Boc-NHCH2CH2OCO-Phe-His-ACHPA-Lys-NHCH2(piperidin-4-yl)] | 39 nM
7 | COc1ccc(C[C@H](NC(=O)OC(C)(C)C)C(=O)N[C@@H](Cc2c[nH]cn2)C(=O)N[C@@H](CC2CCCCC2)[C@@H](O)CC(=O)N[C@@H](CCCCN)C(=O)NCc2ccncc2)cc1 [Example 6, N^α-t-butoxycarbonyl-O-methyl-L-tyrosyl-L-histidyl-(3S,4S)-4-amino-5-cyclohexyl-3-hydroxy-pentanoyl-L-lysyl-4-(aminomethyl)pyridine amide] | 42 nM
8 | CC(C)S(=O)(=O)N[C@@H](Cc1ccccc1)C(=O)N[C@@H](Cc1c[nH]cn1)C(=O)N[C@@H](CC1CCCCC1)[C@@H](O)CC(=O)N[C@@H](CCCCN)C(=O)NCC1CCNCC1 [Example 27, i-PrSO2-Phe-His-ACHPA-Lys-CH2(piperidin-4-yl)] | 159 nM
9 | N^α-t-butoxycarbonyl-L-phenylalanyl-L-histidyl-(3S,4S)-4-amino-5-cyclohexyl-3-hydroxypentanoyl-L-lysyl-N-(2-aminoethyl)-morpholine amide dihydrochloride [Example 12] | 68.9 nM
10 | CC(C)(C)OC(=O)N[C@@H](Cc1ccccc1)C(=O)N[C@@H](Cc1c[nH]cn1)C(=O)N[C@@H](CC1CCCCC1)[C@@H](O)CC(=O)N[C@@H](CCCCN)C(=O)N[C@H]1CCCCNC1=O [Example 9, N^α-t-butoxycarbonyl-L-phenylalanyl-L-histidyl-(3S,4S)-4-amino-5-cyclohexyl-3-hydroxypentanoyl-L-lysyl-L-3-amino-2-oxoazepine amide hydrochloride] | 26.4 nM
